Measured values published in PMC9532951, “Identification and characterization of a novel SNAT2 (SLC38A2) inhibitor reveals synergy with glucose transport inhibition in cancer cells” (Frontiers in Pharmacology, 2022).
Values joined by “and” are separate entries in the source; they are usually repeats but may differ in a detail not shown here. Equal entries are not always repeated.

What was measured:
HCC1806 cells = experiment: [14C]alanine uptake in non-depleted HCC1806 cells; type: cell-based, human; conditions: amino acid replete HCC1806 cells
Procedure: (§1) Functional characterisation of plasma membrane transporters in human cancer cells was determined at 37°C using an array of radiolabelled amino acid substrates. Modified Hanks HEPES-buffered salts solution (mHBSS; 137 mM NaCl; 5.4 mM KCl; 2.7 mM K2HPO4; 1 mM CaCl2; 0.5 mM MgCl2; 0.44 mM KH2PO4; 0.4 mM MgSO4; 5 mM D-glucose; 5 mM HEPES; pH 7.4) was used to wash and incubate cells where sodium dependent transport was measured, while N-methyl-D-glucamine (NMDG) and potassium salts substituted sodium in NMDG mHBSS to measure sodium independent uptake. For the assay, cells were seeded in 35 mm dishes and, once confluent, were washed thrice with warm mHBSS solution and incubated with mHBSS containing an 100 µM amino acid at a final specific activity of ≥2000 cpm/nmol (U-[^14C]amino acids were from PerkinElmer). After 6 min, cells were washed thrice with ice-cold mHBSS, lysed with 500 µl of 0.1 M HCl, detached with a cell scraper and triturated. A 400 µl aliquot was used for scintillation counting, while the remainder was saved for protein mass quantification by Bradford assay. Transport rates were normalised to the protein content of the culture dish.

SNAT1/2 [1] = experiment: FMP assay: depolarisation by amino acid substrates in amino acid depleted HCC1806 cells; type: cell-based, human; conditions: for FMP fluorescence reading: amino acid 1 mM final
Procedure: The FLIPR Membrane Potential Blue Explorer Kit (Molecular Devices) was used to characterise inhibitors and to optimise a high-throughput compound screen. Cells were seeded at approximately 60,000 cells/well on a 96-well plate and allowed to attach and grow overnight in a cell incubator. […] Cells were then washed once with mHBSS and incubated with 50 µl of the mHBSS-resuspended FMP assay dye and 50 µl of mHBSS (with or without inhibitors) and incubated at room temperature for 30 min. The plate was then placed in an EnSpire Multimode plate reader (PerkinElmer) and four sequential measurements of fluorescence were recorded as a baseline reference. Immediately after the baseline measurements were taken, 25 µl of 5 mM glutamine dissolved in mHBSS was injected into each well and the plate was shaken orbitally for 5 s before a series of consecutive fluorescence measurements were taken. The excitation wavelength was set to 530 nm and the emission was detected at 565 nm. […] After the assay was complete, the liquid content of the plate was carefully removed, and the cell monolayer inspected to ensure it remained intact throughout the course of the assay.

SNAT1 and SNAT2 [2] = experiment: FMP assay in HCC1806 clones C10 (ASCT2ko) and D126 (ASCT2ko, SNAT2ko); type: cell-based, human; conditions: MeAIB 10 mM; glutamine 1 mM
Procedure: (§2) To delete the SNAT2 (SLC38A2) gene in modified HCC1806 cells (clone C10 nullizygous for ASCT2 ([Broer et al., 2019])), the GeneArt CRISPR Nuclease Vector with OFP Reporter Kit (Invitrogen; A21174) was employed and complementary 19–20 bp long single-stranded oligonucleotides with overhangs were designed to produce a guide RNA (gRNA) for the Cas9 nuclease that would target exon 7 of the SNAT2 gene. Colonies were analysed by sequencing using the U6 primer included in the GeneArt CRISPR Nuclease Vector with OFP Reporter kit. Plasmids that contained the correct CRISPR nuclease construct were then used to transfect HCC1806 cells with Lipofectamine 2000 (Invitrogen). Prior to transfection, medium was replaced with 2 ml of fresh DMEM/F-12 (supplemented with 10% heat-inactivated FBS and 2 mM glutamine). Plasmid DNA (4 µg) and 10 µL of Lipofectamine 2000 were incubated separately for 5 min at room temperature in 500 µl of Opti-MEM (Invitrogen) before being combined and incubated for a further 30 min at room temperature. The DNA-Lipofectamine complex was then added to the cells in a dropwise manner and allowed to be absorbed over 6 h at 37°C, after which the medium was renewed with fresh DMEM/F-12. Cells were checked for red fluorescence using an EVOS FL cell imaging system (Thermo Fisher Scientific) 48–72 h post transfection. Subsequently, cells were detached using 0.25% Trypsin EDTA. After harvesting and washing thrice with PBS (pH 7.4), cells were resuspended in PBS (pH 7.4) supplemented with 5 mM glucose and 1% dialysed and heat inactivated FBS and passed through a 100 μm cell strainer. The cell filtrate was then pelleted once more and resuspended in the same buffer. Cells were sorted using an ARIA II FACS machine and individually dispensed into the wells of a 96-well plate. Nullizygous clones were identified using a series of assays including the FLIPR membrane potential assay, western blotting and sequencing.
The FLIPR Membrane Potential Blue Explorer Kit (Molecular Devices) was used to characterise inhibitors and to optimise a high-throughput compound screen. Cells were seeded at approximately 60,000 cells/well on a 96-well plate and allowed to attach and grow overnight in a cell incubator. The next day, the cells were washed once with mHBSS and incubated in a starvation medium (composed of mHBSS with 1% dialysed heat-inactivated FBS, 23 mM NaHCO3, 10 U/ml penicillin and 10 μg/ml streptomycin) for 24 h. Cells were then washed once with mHBSS and incubated with 50 µl of the mHBSS-resuspended FMP assay dye and 50 µl of mHBSS (with or without inhibitors) and incubated at room temperature for 30 min. The plate was then placed in an EnSpire Multimode plate reader (PerkinElmer) and four sequential measurements of fluorescence were recorded as a baseline reference. Immediately after the baseline measurements were taken, 25 µl of 5 mM glutamine dissolved in mHBSS was injected into each well and the plate was shaken orbitally for 5 s before a series of consecutive fluorescence measurements were taken. The excitation wavelength was set to 530 nm and the emission was detected at 565 nm. The Δ fluorescent signal reported in the figures was taken 30 s after substrate addition. After the assay was complete, the liquid content of the plate was carefully removed, and the cell monolayer inspected to ensure it remained intact throughout the course of the assay.

SNAT1/2 [3] = experiment: [14C]glutamine uptake in HCC1806 cells; type: cell-based, human
Procedure: as §1

SNAT2 = experiment: Radiolabelled proline uptake in amino acid depleted SKOV3 cells; type: cell-based, human; conditions: for inhibition of proline uptake: 10 mM
Procedure: as §1
IC50 were calculated using equation y=ymax(1−x/x+IC50)

SNAT1 = biological target: T1, SNAT1 (Homo sapiens, UniProt Q9H2H9); experiment: Alanine uptake in HCC1806 D126 (ASCT2ko, SNAT2ko) cells; type: cell-based
T1 construct: SNAT1 remained active as indicated by the Na^+-dependence of alanine uptake; endogenous in cells; host or cells: HCC1806 clone D126 (ASCT2ko, SNAT2ko), amino acid depleted for 24 h
T1 sequence (Q9H2H9 1-487): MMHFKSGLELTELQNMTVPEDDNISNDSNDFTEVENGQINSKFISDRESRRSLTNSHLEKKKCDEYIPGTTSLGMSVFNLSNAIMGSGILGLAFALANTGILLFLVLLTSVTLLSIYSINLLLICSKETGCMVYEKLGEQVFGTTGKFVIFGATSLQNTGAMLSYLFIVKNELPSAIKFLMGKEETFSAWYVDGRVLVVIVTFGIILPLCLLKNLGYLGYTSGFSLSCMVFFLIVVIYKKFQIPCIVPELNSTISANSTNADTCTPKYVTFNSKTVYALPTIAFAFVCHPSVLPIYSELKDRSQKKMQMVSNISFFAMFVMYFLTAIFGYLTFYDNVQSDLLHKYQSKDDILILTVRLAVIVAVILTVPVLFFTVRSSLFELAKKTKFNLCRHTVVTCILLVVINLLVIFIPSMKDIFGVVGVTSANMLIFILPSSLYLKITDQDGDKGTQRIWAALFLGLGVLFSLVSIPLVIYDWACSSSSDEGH
Procedure: as §2, §1

SNAT1 and SNAT2 [4] = experiment: High-throughput compound screen, FMP assay in 384-well format (primary, confirmatory, control compounds); type: cell-based, human; conditions: 10 mM, 1 mM glutamine
Procedure: For the high-throughput compound screen, the FMP assay was adapted into a 384-well format within the ANU Centre for Therapeutic Discovery. […] Compounds Australia stores compounds under robust environmental conditions and supplies them in assay ready plate format. We screened 33,934 compounds from the Collection Scaffold Library. Cells (10,000/well) were seeded into Corning 384-well black walled plates (CLS3985; Sigma-Aldrich) using a Multidrop Combi liquid dispensing robot (Thermo Fisher) in a 40 µl volume. Once seeded, cells were allowed to grow in a microplate incubator (Liconic) for 24 h at 37°C (humidified atmosphere with 95% air and 5% CO2). Subsequently, plates were washed thrice with 50 µL of mHBSS using a 405 TS washer (BioTek). Then, 50 µl of starvation medium was added and cells were incubated again for 24 h.
Assay-ready compound plates (384 well plates containing compound or DMSO controls) were then prepared prior to addition to cells. In addition to the supplied compounds, 5 µl γ-glutamyl-hydroxamate (GHX, 60 mM dissolved in mHBSS, serving as an inhibitor control) was added into inhibitor control wells using a JANUS G3 robot (PerkinElmer). Subsequently, 25 uL of mHBSS was dispensed into all wells of the 384 well plate using a Multidrop Combi. All samples were then mixed using the JANUS G3 robot and 15 µl dispensed on top of the cell monolayer to reach a final concentration of 10.05 µM.
The FMP dye was solved freshly with mHBSS, 20 µl of which was deposited into each well using the Multidrop Combi, and the cells were incubated at room temperatur for 30 min. Each plate was then placed in an EnVision microplate reader (PerkinElmer) and a single baseline measurement was taken for each well (bottom reads excitation at 531, emission at 579 nm). The plate was then transferred to the Multidrop Combi and 10 µl/well of 5 mM glutamine was dispensed into each well. After linearly shaking for 5 s, microplates were returned to the EnVision microplate reader for a single post-injection measurement per well. The change of fluorescence was measured after 60 s.
Z′ scores were calculated from the controls onboard each of the 384-well plates assayed in the primary and secondary screen as described by Zhang et al., ([Zhang et al., 1999]). For the control inhibitor γ-glutamyl-hydroxamate (GHX) a Z’ score of 0.717 was determined, which was a sufficient signal for a HTS.

N[C@@H](CCC(=O)Nc1ccc([N+](=O)[O-])cc1)C(=O)O [GPNA, γ-glutamyl-p-nitroanilide] was tested, and the “inhibition of alanine transport” value (HCC1806 cells) was “inhibited a large fraction of alanine transport”.
In the case of CNC(C)(C)C(=O)O [MeAIB, N-methyl-aminoisobutyric acid], the “FMP response as substrate” value (SNAT1/2 [1]; 1 mM) is reported as “weaker signal”, the FMP fluorescence reading (SNAT1/2 [1]; t=0 s) is reported as 49084 and 50100 and 40663 and the FMP fluorescence reading (SNAT1/2 [1]; t=15 s) is reported as 81984 and 86589 and 75934. For the same compound, the FMP fluorescence reading (SNAT1/2 [1]; t=30 s) was 86634 and 91101 and 78520, the FMP fluorescence reading (SNAT1/2 [1]; t=45 s) was 90066 and 93398 and 80464 and the FMP fluorescence reading (SNAT1/2 [1]; t=60 s) was 92350 and 95113 and 80900. The FMP fluorescence reading (SNAT1/2 [1]; t=75 s) was 92919 and 96006 and 80942, the FMP fluorescence reading (SNAT1/2 [1]; t=90 s) was 93944 and 96169 and 81331 and the FMP fluorescence reading (SNAT1/2 [1]; t=105 s) was 93680 and 96448 and 80487. The FMP fluorescence reading (SNAT1/2 [1]; t=120 s) was 93733 and 95947 and 80206, the FMP fluorescence reading (SNAT1/2 [1]; t=135 s) was 93032 and 95155 and 78841 and the FMP fluorescence reading (SNAT1/2 [1]; t=-15 s) was 48467 and 50314 and 40490. For the same compound, the FMP fluorescence reading (SNAT1/2 [1]; t=-30 s, replicates 1-3) was 48576 and 50230 and 40217, the “FMP signal in D126 cells (ASCT2ko, SNAT2ko) compared to C10” value (SNAT1 and SNAT2 [2]) was 42% and the Glutamine uptake (SNAT1/2 [3]; AA+ (growth medium), 100 µM glutamine, replicates 1-3) was 39.8616 nmol / mg protein x 6 min and 35.3498 nmol / mg protein x 6 min and 40.7838 nmol / mg protein x 6 min. For the same compound, the Glutamine uptake (SNAT1/2 [3]; AA- (starvation medium 24 h), 100 µM glutamine, replicates 1-3) was 8.629 nmol / mg protein x 6 min and 3.7831 nmol / mg protein x 6 min and 8.492 nmol / mg protein x 6 min, the “Glutamine uptake (nmol / mg protein x 6 min)” value (SNAT1/2 [3]; Figure 3D, replicates 1-3) was 35.1959 nmol / mg protein x 6 min and 29.1234 nmol / mg protein x 6 min and 25.7847 nmol / mg protein x 6 min and the “reduction of glutamine uptake” value (SNAT1/2 [3]; amino acid depleted HCC1806 cells (24 h), 100 µM glutamine) was 80%. For the same compound, the “inhibition of glutamine uptake” value (SNAT1/2 [3]; fed HCC1806 cells) was “barely inhibited”, the “inhibition of proline uptake” value (SNAT2; Figure 4A) was “strong inhibition” and the “inhibition of proline uptake” value (SNAT2; Figure 4D (15 h starvation)) was “almost completely”. For the same compound, the “Proline uptake (nmol / mg protein x 6 min)” value (SNAT2; Figure 4A, 10mM, replicates 1-3) was 3.275 nmol / mg protein x 6 min and 3.216 nmol / mg protein x 6 min and 2.965 nmol / mg protein x 6 min, the “Proline uptake (nmol / mg protein x 6 min)” value (SNAT2; Figure 5B, reference inhibitors, replicates) was 1.301 nmol / mg protein x 6 min and 1.471 nmol / mg protein x 6 min and 1.547 nmol / mg protein x 6 min and the “Alanine uptake (nmol / mg protein x 6 min)” value (SNAT1; Figure 4B, 10mM, replicates 1-3) was 11.1023 nmol / mg protein x 6 min and 10.5839 nmol / mg protein x 6 min and 9.888 nmol / mg protein x 6 min. The “inhibition of alanine uptake” value (SNAT1; HCC1806 D126, Figure 4B, betaine and MeAIB 10 mM) was “inhibition”.
In the case of OC[C@H]1OC(O)[C@H](O)[C@@H](O)[C@@H]1O (stereo partly shown) [glucose], the “influence on FMP signal” value (SNAT1 and SNAT2 [4]) is reported as “did not influence the signal”.
With CC(=O)C(=O)O [pyruvate] the “influence on FMP signal” value (SNAT1 and SNAT2 [4]) was “did not influence the signal”.
